Assays:
[1] = for mass density: 348.15 K, 101.33 kPa, Liquid, Vibrating tube method; for Normal melting temperature: Crystal, DTA
[2] = Boiling temperature at pressure P; conditions: Liquid, Ebulliometric method (Recirculating still)
[3] = Molar enthalpy of transition or fusion; conditions: Crystal; DSC

O=[N+]([O-])c1ccc(Cl)c(Cl)c1 [3,4-dichloro-1-nitrobenzene]
Conditions	Molar enthalpy of transition or fusion [kcal/mol]	Normal melting temperature [°C]	mass density [kg/m3]
[1]	–	42.2	1533
[3]	4.24	–	–

[2]
Conditions	Boiling temperature at pressure P [°C]
3.01 kPa	143.59
4.22 kPa	151.87
4.98 kPa	156.10
5.82 kPa	160.09
6.97 kPa	164.90
7.4 kPa	166.54
9.08 kPa	172.28
9.77 kPa	174.29
11.5 kPa	178.94
12.15 kPa	180.66
13.41 kPa	183.46
15.01 kPa	186.98
16.24 kPa	189.28
17.48 kPa	191.66
19.68 kPa	195.37
21.06 kPa	197.53
24.35 kPa	202.28
25.56 kPa	203.78
26.76 kPa	205.32
31.46 kPa	210.79
34.27 kPa	213.8
36.87 kPa	216.33
41.72 kPa	220.8
45.99 kPa	224.32
51.49 kPa	228.52
55.34 kPa	231.23
61.61 kPa	235.37
65.28 kPa	237.58
70.2 kPa	240.51
74.34 kPa	242.70
79.67 kPa	245.50
83.95 kPa	247.64
89.76 kPa	250.37
94.77 kPa	252.61
98.14 kPa	254.08
101.3 kPa	255.44

O=[N+]([O-])c1cccc(Cl)c1Cl [1,2-dichloro-3-nitrobenzene]
Conditions	Molar enthalpy of transition or fusion [kcal/mol]	Normal melting temperature [°C]	mass density [kg/m3]
[1]	–	61.8	1533
[3]	5.33	–	–

[2]
Conditions	Boiling temperature at pressure P [°C]
3.26 kPa	148.61
3.72 kPa	151.73
4.07 kPa	153.89
5.48 kPa	161.26
6.14 kPa	164.16
7.17 kPa	168.22
8.84 kPa	174
10.02 kPa	177.31
11.41 kPa	180.98
12.61 kPa	183.86
13.71 kPa	186.30
15.55 kPa	190.1
16.52 kPa	191.88
18.33 kPa	195.16
20.52 kPa	198.69
21.66 kPa	200.30
22.76 kPa	201.89
25.1 kPa	205.06
27.58 kPa	208.17
30.63 kPa	211.69
35.11 kPa	216.38
40.91 kPa	221.76
46.97 kPa	226.77
50.86 kPa	229.71
54.85 kPa	232.54
57.81 kPa	234.64
61.11 kPa	236.77
63.43 kPa	238.11
65.25 kPa	239.22
70.98 kPa	242.53
76.92 kPa	245.8
80.62 kPa	247.66
85.76 kPa	250.19
91.3 kPa	252.79
96.08 kPa	254.94
101.3 kPa	257.18

Reference: the NIST ThermoML archive (doi:10.1016/j.fluid.2014.01.034)
